# Tests used:
# TNF-α [1] = assay: TNF-α expression inhibition in RAW264.7 macrophages vs PS1145 (ELISA), Experiment 1-1; format: cell-based; settings: Fig. 1
# TNF-α [2] = assay: TNF-α expression inhibition in Raw264.7, comparison with hydroxychloroquine and proguanil, Experiment 2-3; format: cell-based
# [3] = tested on: rheumatoid arthritis model, DBA-1J Mice [류마티스 관절염 모델]; assay: Arthritis score in rheumatoid arthritis animal model, Experiment 5; format: in vivo, mouse
# [4] = tested on: rheumatoid arthritis model, DBA-1J Mice [류마티스 관절염 모델]; assay: Histopathological examination in rheumatoid arthritis animal model, Experiment 5; format: in vivo, mouse; settings: Day 14
# [5] = Hematological examination, Experiment 6-4; format: in vivo, mouse; settings: for %BASO / %EOS / %LUC / %LYM / %MONO / %NEUT / %RETIC / HCT / HDW / HGB / MCH / MCV / MPV / PLT / RBC / RDW / WBC: Day 14
# [6] = G3: MTX 2 mpk qd PO, G12: Py 15 mpk qd PO
smiles,measurement,setting,value
"CCc1nc(N)nc(N)c1-c1ccc(Cl)cc1 [피리메타민, Pyrimethamine]",TNF-α expression,"TNF-α [1]; pyrimethamine 2, 10, 50 ng/ml",TNF-α의 발현량이 현저하게 줄어들었으며
same,TNF-α expression compared with PS1145,TNF-α [1]; pyrimethamine 10 or 50 ng/ml vs PS1145 20 uM,비교예(PS1145)에 비해 TNF-α의 발현이 보다 현저하게 줄어드는
same,TNF-α expression,"TNF-α [2]; PY 0.2 uM, HCQ 0.61 uM, PG 5 uM, LPS 10 ng/mL, 24 h co-treatment",667.9
same,TNF-α expression inhibition,"TNF-α [2]; drug treatment 2 h or 24 h, pyrimethamine 0.2 μM, proguanil 5 μM",히드록시클로로퀸과 비교하였을 때 피리메타민의 TNF-α 발현량 억제능이 월등함
same,Arthritis score,"[3]; Day 0, G4: Py 10 mg/kg/day PO",2.3±1.6 Total score
same,Arthritis score,"[3]; Day 0, G5: Py 30 mg/kg/day PO",2.3±1.4 Total score
same,Arthritis score,"[3]; Day 2, G4: Py 10 mg/kg/day PO",4.0±1.6 Total score
same,Arthritis score,"[3]; Day 2, G5: Py 30 mg/kg/day PO",2.7±1.8 Total score
same,Arthritis score,"[3]; Day 4, G4: Py 10 mg/kg/day PO",4.6±1.8 Total score
same,Arthritis score,"[3]; Day 4, G5: Py 30 mg/kg/day PO",4.0±2.7 Total score
same,Arthritis score,"[3]; Day 7, G4: Py 10 mg/kg/day PO",5.4±2.4 Total score
same,Arthritis score,"[3]; Day 7, G5: Py 30 mg/kg/day PO",4.0±2.7 Total score
same,Arthritis score,"[3]; Day 9, G4: Py 10 mg/kg/day PO",6.1±2.5 Total score
same,Arthritis score,"[3]; Day 9, G5: Py 30 mg/kg/day PO",5.3±1.6 Total score
same,Arthritis score,"[3]; Day 11, G4: Py 10 mg/kg/day PO",6.7±2.1 Total score
same,Arthritis score,"[3]; Day 11, G5: Py 30 mg/kg/day PO",5.4±1.5 Total score
same,Arthritis score,"[3]; Day 14, G4: Py 10 mg/kg/day PO",7.3±2.1 Total score
same,Arthritis score,"[3]; Day 14, G5: Py 30 mg/kg/day PO",5.6±1.4 Total score
same,Arthritis score (in words),"[3]; pyrimethamine groups, 10 and 30 mg/kg/day PO",관절염 지수가 현저하게 감소
same,Arthritis score compared with methotrexate (in words),[3]; pyrimethamine high dose (30 mg/kg/day) PO,메토트렉세이트 투여군에 비해 관절염 지수가 현저하게 낮은
same,Bone destruction,[4]; G4: Py 10 mg/kg/day PO,0.9±0.9
same,Cartilage damage,[4]; G4: Py 10 mg/kg/day PO,1.3±1.0
same,"Histopathological examination, total",[4]; G4: Py 10 mg/kg/day PO,3.6±2.7
same,Synovium proliferation,[4]; G4: Py 10 mg/kg/day PO,1.4±1.1
same,Bone destruction,[4]; G5: Py 30 mg/kg/day PO,0.4±0.8
same,Cartilage damage,[4]; G5: Py 30 mg/kg/day PO,0.3±0.5
same,"Histopathological examination, total",[4]; G5: Py 30 mg/kg/day PO,1.1±1.5
same,Synovium proliferation,[4]; G5: Py 30 mg/kg/day PO,0.4±0.8
same,Efficacy by histopathology compared with methotrexate (in words),[4]; Py 10 and 30 mg/kg/day PO,메토트렉세이트와 비교할 때에도 보다 우수한 효과
same,Therapeutic efficacy by histopathology (in words),[4]; Py 10 and 30 mg/kg/day PO,농도 의존적으로 치료 효능을 보였으며
same,%BASO,[5]; [6],0.4±0.3%
same,%EOS,[5]; [6],1.5±0.4%
same,%LUC,[5]; [6],1.5±1%
same,%LYM,[5]; [6],40.4±4.1%
same,%MONO,[5]; [6],4.2±0.8%
same,%NEUT,[5]; [6],52±5.2%
same,%RETIC,[5]; [6],3.85±0.63%
same,HCT,[5]; [6],46±2.5%
same,HDW,[5]; [6],2.15 ± 0.13 g/dL
same,HGB,[5]; [6],12.6 ± 0.7 g/dL
same,MCH,[5]; [6],13.1 ± 0.4 pg
same,MCV,[5]; [6],47.8 ± 1.5 fL
same,MPV,[5]; [6],6.3 ± 0.1 fL
same,PLT,[5]; [6],1211±176 10^3 cell/μL
same,RBC,[5]; [6],9.63±0.75 10^6 cell/μL
same,RDW,[5]; [6],24.2±2.2%
same,WBC,[5]; [6],3.58±1.19 10^3 cell/μL
same,%BASO,[5]; G7: Py 1 mpk qd IP,0.8±0.1%
same,%EOS,[5]; G7: Py 1 mpk qd IP,1.2±0.2%
same,%LUC,[5]; G7: Py 1 mpk qd IP,2.8±1.3%
same,%LYM,[5]; G7: Py 1 mpk qd IP,49.2±3.5%
same,%MONO,[5]; G7: Py 1 mpk qd IP,6.1±2.1%
same,%NEUT,[5]; G7: Py 1 mpk qd IP,40±3.5%
same,%RETIC,[5]; G7: Py 1 mpk qd IP,5.1±0.9%
same,HCT,[5]; G7: Py 1 mpk qd IP,43.6±3.2%
same,HDW,[5]; G7: Py 1 mpk qd IP,2.33 ± 0.15 g/dL
same,HGB,[5]; G7: Py 1 mpk qd IP,11.9 ± 0.7 g/dL
same,MCH,[5]; G7: Py 1 mpk qd IP,12.3 ± 0.2 pg
same,MCV,[5]; G7: Py 1 mpk qd IP,45.1 ± 0.8 fL
same,MPV,[5]; G7: Py 1 mpk qd IP,7.5 ± 0.6 fL
same,PLT,[5]; G7: Py 1 mpk qd IP,403±182 10^3 cell/μL
same,RBC,[5]; G7: Py 1 mpk qd IP,9.68±0.63 10^6 cell/μL
same,RDW,[5]; G7: Py 1 mpk qd IP,22±2.8%
same,WBC,[5]; G7: Py 1 mpk qd IP,5.4±2.01 10^3 cell/μL
same,%BASO,[5]; G8: Py 1 mpk qd PO,0.6±0.2%
same,%EOS,[5]; G8: Py 1 mpk qd PO,1.6±0.5%
same,%LUC,[5]; G8: Py 1 mpk qd PO,2±0.8%
same,%LYM,[5]; G8: Py 1 mpk qd PO,45±8.1%
same,%MONO,[5]; G8: Py 1 mpk qd PO,4.7±1.2%
same,%NEUT,[5]; G8: Py 1 mpk qd PO,46.3±9.0%
same,%RETIC,[5]; G8: Py 1 mpk qd PO,6.74±3.63%
same,HCT,[5]; G8: Py 1 mpk qd PO,44.8±2.5%
same,HDW,[5]; G8: Py 1 mpk qd PO,2.31 ± 0.25 g/dL
same,HGB,[5]; G8: Py 1 mpk qd PO,12.3 ± 0.6 g/dL
same,MCH,[5]; G8: Py 1 mpk qd PO,12.6 ± 0.4 pg
same,MCV,[5]; G8: Py 1 mpk qd PO,45.6 ± 0.9 fL
same,MPV,[5]; G8: Py 1 mpk qd PO,6.3 ± 0.1 fL
same,PLT,[5]; G8: Py 1 mpk qd PO,1380±72 10^3 cell/μL
same,RBC,[5]; G8: Py 1 mpk qd PO,9.82±0.67 10^6 cell/μL
same,RDW,[5]; G8: Py 1 mpk qd PO,21.5±3%
same,WBC,[5]; G8: Py 1 mpk qd PO,2.67±0.58 10^3 cell/μL
same,Hematotoxicity (in words),"[5]; G7, intraperitoneal injection",혈소판 수치가 감소하는 독성이 나타났다
same,Hematotoxicity (in words),[5]; oral groups G8-G12,혈액 독성이 나타나지 않음

# From patent publication KR20210056931A, “피리메타민을 유효성분으로 포함하는 면역 관련 질환의 치료 또는 예방용 약학 조성물” (priority 2019, dated 2021)
